Experimental data from patent US10981926B2 (Janssen Pharmaceutica NV, priority 2016, dated 2021).

Experiments:
Format in all cases: cell-based
[1] = target: T1, F876L mutant Androgen Receptor (AR-F876L) (Homo sapiens (Human), UniProt P10275, F877L); assay: LNCaP-AR-F876L ANT reporter assay (antagonist mode); conditions: antagonist mode; for Emax: maximum % inhibition of R1881 control response over tested concentration range, read-out: LNCaP-AR-F876L ANT MAX % Inh; for IC50: pIC50 = −Log10(IC50 in Molar), read-out: LNCaP-AR-F876L ANT pIC50 (converted)
[2] = target: T2, wild-type Androgen Receptor (AR-wt) (Homo sapiens (Human), UniProt P10275); assay: LNCaP-AR-wt ANT reporter assay (antagonist mode); conditions: antagonist mode; for Emax: maximum % inhibition of R1881 control response over tested concentration range, read-out: LNCaP-AR-wt ANT MAX % Inh; for IC50: pIC50 = −Log10(IC50 in Molar), read-out: LNCaP-AR-wt ANT pIC50 (converted)
[3] = target: T1, F876L mutant Androgen Receptor (AR-F876L); assay: LNCaP-AR-F876L AG reporter assay (agonist mode); conditions: agonist mode; for Emax: maximum % stimulation over tested concentration range, read-out: LNCaP-AR-F876L AG MAX % Stim; for EC50: pEC50 = −Log10(EC50 in Molar), read-out: LNCaP-AR-F876L AG pEC50 (converted)
[4] = target: T2, wild-type Androgen Receptor (AR-wt); assay: LNCaP-AR-wt AG reporter assay (agonist mode); conditions: agonist mode; for Emax: maximum % stimulation over tested concentration range, read-out: LNCaP-AR-wt AG MAX % Stim; for EC50: pEC50 = −Log10(EC50 in Molar), read-out: LNCaP-AR-wt AG pEC50 (converted)

T2 sequence (P10275 whole entry): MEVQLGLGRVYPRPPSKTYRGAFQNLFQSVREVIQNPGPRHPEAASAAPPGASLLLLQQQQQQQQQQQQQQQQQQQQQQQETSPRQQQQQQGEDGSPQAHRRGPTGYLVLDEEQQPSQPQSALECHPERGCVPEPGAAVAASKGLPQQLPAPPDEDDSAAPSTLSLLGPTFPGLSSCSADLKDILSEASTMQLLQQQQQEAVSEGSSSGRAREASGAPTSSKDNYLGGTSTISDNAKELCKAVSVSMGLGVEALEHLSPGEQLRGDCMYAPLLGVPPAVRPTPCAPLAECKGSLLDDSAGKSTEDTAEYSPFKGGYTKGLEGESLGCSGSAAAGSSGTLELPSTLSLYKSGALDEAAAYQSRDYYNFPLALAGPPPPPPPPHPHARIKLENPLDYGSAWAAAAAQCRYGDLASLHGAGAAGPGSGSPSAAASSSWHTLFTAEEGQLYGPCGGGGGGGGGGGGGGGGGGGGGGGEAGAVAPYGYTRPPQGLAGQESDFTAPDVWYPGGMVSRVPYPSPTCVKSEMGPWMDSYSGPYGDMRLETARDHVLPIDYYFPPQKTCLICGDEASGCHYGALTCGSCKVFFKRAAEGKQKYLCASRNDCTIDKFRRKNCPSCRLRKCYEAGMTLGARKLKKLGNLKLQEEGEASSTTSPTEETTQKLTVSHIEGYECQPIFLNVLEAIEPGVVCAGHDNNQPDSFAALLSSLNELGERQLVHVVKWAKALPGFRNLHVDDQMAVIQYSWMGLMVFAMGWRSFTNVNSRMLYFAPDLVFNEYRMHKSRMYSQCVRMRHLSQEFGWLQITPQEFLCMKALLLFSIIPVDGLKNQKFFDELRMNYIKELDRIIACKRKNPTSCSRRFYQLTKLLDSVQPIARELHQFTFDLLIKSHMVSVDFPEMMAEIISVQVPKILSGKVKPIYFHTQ
T1 sequence (P10275 whole entry F877L): as the sequence (P10275 whole entry) above, with F877L counted along it

`N#Cc1ncc(N2C(=O)C3(CCC3)N(c3ccc(CN4CCN(C5CC5)CC4)cc3)C2=S)cc1C(F)(F)F` [Cpd 220, 5-[8-[4-[(4-cyclopropylpiperazin-1-yl)methyl]phenyl]-5-oxo-7-thioxo-6,8-diazaspiro[3.4]octan-6-yl]-3-(trifluoromethyl)pyridine-2-carbonitrile] was tested, and the Emax [1] was 101%, the IC50 [1] was 589 nM and the Emax [2] was 102%. The IC50 [2] was 741 nM, the Emax [3] was 0.1% and the EC50 [3] was greater than 15100 nM. The Emax [4] was 0.1% and the EC50 [4] was greater than 15100 nM.

`N#Cc1ncc(N2C(=O)C3(CCC3)N(c3ccc(C(=O)NCC4CCNCC4)c(F)c3)C2=S)cc1C(F)(F)F` [Cpd 221, 4-[6-[6-cyano-5-(trifluoromethyl)-3-pyridyl]-5-oxo-7-thioxo-6,8-diazaspiro[3.4]octan-8-yl]-2-fluoro-N-(4-piperidylmethyl)benzamide] showed an Emax [1] of 100%, an IC50 [1] of 589 nM and an Emax [2] of 101%. For the same compound, the IC50 [2] was 891 nM, the Emax [3] was 0.1% and the EC50 [3] was greater than 15100 nM. For the same compound, the Emax [4] was -0.1% and the EC50 [4] was greater than 15100 nM.

Work on `N#Cc1ncc(N2C(=O)C3(CCC3)N(c3ccc(CN4CCC(N)CC4)cc3)C2=S)cc1C(F)(F)F` [Cpd 224, 5-[8-[4-[(4-amino-1-piperidyl)methyl]phenyl]-5-oxo-7-thioxo-6,8-diazaspiro[3.4]octan-6-yl]-3-(trifluoromethyl)pyridine-2-carbonitrile] yielded an Emax [1] of 100%, an IC50 [1] of 1480 nM and an Emax [2] of 101%. The IC50 [2] was 1780 nM, the Emax [3] was 0.1% and the EC50 [3] was greater than 15100 nM. It also gave an Emax [4] of 0% and an EC50 [4] greater than 15100 nM.

For `N#Cc1ncc(N2C(=O)C3(CCC3)N(c3ccc(CN4CCN(CCO)CC4)cc3)C2=S)cc1C(F)(F)F` [Cpd 227, 5-[8-[4-[[4-(2-hydroxyethyl)piperazin-1-yl]methyl]phenyl]-5-oxo-7-thioxo-6,8-diazaspiro[3.4]octan-6-yl]-3-(trifluoromethyl)pyridine-2-carbonitrile], the Emax [1] was 100%, the IC50 [1] was 417 nM and the Emax [2] was 102%. It also gave an IC50 [2] of 513 nM, an Emax [3] of 0.1% and an EC50 [3] greater than 15100 nM. The Emax [4] was -0.2% and the EC50 [4] was greater than 15100 nM.

For `N#Cc1ncc(N2C(=O)C3(CCC3)N(c3ccc(CN4CCNC(=O)C4)cc3)C2=S)cc1C(F)(F)F` [Cpd 228, 5-[5-oxo-8-[4-[(3-oxopiperazin-1-yl)methyl]phenyl]-7-thioxo-6,8-diazaspiro[3.4]octan-6-yl]-3-(trifluoromethyl)pyridine-2-carbonitrile], the Emax [1] was 101%, the IC50 [1] was 115 nM and the Emax [2] was 102%. For the same compound, the IC50 [2] was 209 nM, the Emax [3] was 0.1% and the EC50 [3] was greater than 15100 nM. For the same compound, the Emax [4] was -0.2% and the EC50 [4] was greater than 15100 nM.

Compound `Cc1cc(N2C(=O)C3(CCC3)N(c3ccc(CC4CCNCC4)cc3)C2=S)cnc1C#N` [Cpd 235, 3-methyl-5-[5-oxo-8-[4-(4-piperidylmethyl)phenyl]-7-thioxo-6,8-diazaspiro[3 4]octan-6-yl]pyridine-2-carbonitrile] has an Emax [1] of 101%, an IC50 [1] of 562 nM and an Emax [2] of 101%. The IC50 [2] was 1070 nM, the Emax [3] was 0.1% and the EC50 [3] was greater than 15100 nM. The Emax [4] was 0.2% and the EC50 [4] was greater than 15100 nM.

For `COc1cc(N2C(=O)C3(CCC3)N(c3ccc(CC4CCNCC4)cc3)C2=S)cnc1C#N` [Cpd 236, 3-Methoxy-5-[8-oxo-5-(4-piperidin-4-ylmethyl-phenyl)-6-thioxo-5,7-diaza-spiro[3.4]oct-7-yl]-pyridine-2-carbonitrile], the Emax [1] was 101%, the IC50 [1] was 269 nM and the Emax [2] was 103%. The IC50 [2] was 457 nM, the Emax [3] was 0.2% and the EC50 [3] was greater than 15100 nM. It also gave an Emax [4] of 0.6% and an EC50 [4] greater than 15100 nM.

For `CN1CCC(Cc2ccc(N3C(=S)N(c4cnc(C#N)c(C(F)(F)F)c4)C(=O)C34CCC4)cc2)CC1` [Cpd 237, 5-[8-[4-[(1-methyl-4-piperidyl)methyl]phenyl]-5-oxo-7-thioxo-6,8-diazaspiro[3.4]octan-6-yl]-3-(trifluoromethyl)pyridine-2-carbonitrile], the Emax [1] was 100%, the IC50 [1] was 468 nM and the Emax [2] was 104%. It also gave an IC50 [2] of 832 nM, an Emax [3] of 0.1% and an EC50 [3] greater than 15100 nM. It also gave an Emax [4] of 0.4% and an EC50 [4] greater than 15100 nM.

In the case of `Cc1cc(N2C(=O)C3(CCC3)N(c3ccc(CC4CCN(C)CC4)cc3)C2=S)cnc1C#N` [Cpd 238, 3-methyl-5-[8-[4-[(1-methyl-4-piperidyl)methyl]phenyl]-5-oxo-7-thioxo-6,8-diazaspiro[3.4]octan-6-yl]pyridine-2-carbonitrile], the Emax [1] was 101%, the IC50 [1] was 813 nM and the Emax [2] was 101%. For the same compound, the IC50 [2] was 1410 nM, the Emax [3] was 0.1% and the EC50 [3] was greater than 15100 nM. It also gave an Emax [4] of 0% and an EC50 [4] greater than 15100 nM.

In the case of `COc1cc(N2C(=O)C3(CCC3)N(c3ccc(CC4CCN(C)CC4)cc3)C2=S)cnc1C#N` [Cpd 239, 3-methoxy-5-[8-[4-[(1-methyl-4-piperidyl)methyl]phenyl]-5-oxo-7-thioxo-6,8-diazaspiro[3.4]octan-6-yl]pyridine-2-carbonitrile], the Emax [1] was 102%, the IC50 [1] was 347 nM and the Emax [2] was 103%. The IC50 [2] was 603 nM, the Emax [3] was 0.2% and the EC50 [3] was greater than 15100 nM. For the same compound, the Emax [4] was -0.1% and the EC50 [4] was greater than 15100 nM.

For `Cn1cnc2cc(N3C(=S)N(c4cnc(C#N)c(C(F)(F)F)c4)C(=O)C34CCC4)ccc21` [Cpd 244, 5-[8-(1-methylbenzimidazol-5-yl)-5-oxo-7-thioxo-6,8-diazaspiro[3.4]octan-6-yl]-3-(trifluoromethyl)pyridine-2-carbonitrile], the Emax [1] was 101%, the IC50 [1] was 245 nM and the Emax [2] was 98.7%. The IC50 [2] was 646 nM, the Emax [3] was -0.5% and the EC50 [3] was greater than 15100 nM. For the same compound, the Emax [4] was 0.2% and the EC50 [4] was greater than 15100 nM.

Work on `Cc1nc2cc(N3C(=S)N(c4cnc(C#N)c(C(F)(F)F)c4)C(=O)C34CCC4)ccc2[nH]1` [Cpd 245, 5-[8-(2-methyl-1H-benzimidazol-5-yl)-5-oxo-7-thioxo-6,8-diazaspiro[3.4]octan-6-yl]-3-(trifluoromethyl)pyridine-2-carbonitrile] yielded an Emax [1] of 102%, an IC50 [1] of 151 nM and an Emax [2] of 99.3%. The IC50 [2] was 479 nM, the Emax [3] was 0.5% and the EC50 [3] was greater than 15100 nM. For the same compound, the Emax [4] was 0% and the EC50 [4] was greater than 15100 nM.

`Cc1cc(N2C(=O)C3(CCC3)N(c3cnc(OC4CCNCC4)nc3)C2=S)cnc1C#N` [Cpd 246, 3-methyl-5-[5-oxo-8-[2-(4-piperidyloxy)pyrimidin-5-yl]-7-thioxo-6,8-diazaspiro[3.4]octan-6-yl]pyridine-2-carbonitrile] showed an Emax [1] of 99.5%, an IC50 [1] of 1150 nM and an Emax [2] of 0%. The IC50 [2] was 1120 nM, the Emax [3] was 0.2% and the EC50 [3] was greater than 15100 nM. For the same compound, the Emax [4] was 0.1% and the EC50 [4] was greater than 15100 nM.

`Cc1cc(N2C(=O)C3(CCC3)N(c3cnc(OC4CCN(C)CC4)nc3)C2=S)cnc1C#N` [Cpd 247, 3-Methyl-5-[8-[2-[(1-methyl-4-piperidyl)oxy]pyrimidin-5-yl]-5-oxo-7-thioxo-6,8-diazaspiro[3,4]octan-6-yl]pyridine-2-carbonitrile] was tested, and the Emax [1] was 99.4%, the IC50 [1] was 1200 nM and the Emax [2] was 0%. It also gave an IC50 [2] of 1000 nM, an Emax [3] of 0.2% and an EC50 [3] greater than 15100 nM. It also gave an Emax [4] of -0.1% and an EC50 [4] greater than 15100 nM.

`N#Cc1ncc(N2C(=O)C3(CCC3)N(c3ccc4c(ccn4CCO)c3)C2=S)cc1C(F)(F)F` [Cpd 248, 5-[8-[1-(2-hydroxyethyl)indol-5-yl]-5-oxo-7-thioxo-6,8-diazaspiro[3.4]octan-6-yl]-3-(trifluoromethyl)pyridine-2-carbonitrile] gave an Emax [1] of 102%, an IC50 [1] of 372 nM and an Emax [2] of 0%. For the same compound, the IC50 [2] was 417 nM, the Emax [3] was 0.4% and the EC50 [3] was greater than 15100 nM. For the same compound, the Emax [4] was 0% and the EC50 [4] was greater than 15100 nM.

`N#Cc1ncc(N2C(=O)C3(CCC3)N(c3ccc4c(ccn4C4CCNCC4)c3)C2=S)cc1C(F)(F)F` [Cpd 249, 5-[8-Oxo-5-(1-piperidin-4-yl-1H-indol-5-yl)-6-thioxo-5,7-diaza-spiro[3.4]oct-7-yl]-3-trifluoromethyl-pyridine-2-carbonitrile] was tested, and the Emax [1] was 103%, the IC50 [1] was 316 nM and the Emax [2] was 0%. For the same compound, the IC50 [2] was 407 nM, the Emax [3] was 0% and the EC50 [3] was greater than 15100 nM. It also gave an Emax [4] of 0% and an EC50 [4] greater than 15100 nM.

`N#Cc1ncc(N2C(=O)C3(CCC3)N(c3ccc4ccn(CCO)c4c3)C2=S)cc1C(F)(F)F` [Cpd 250, 5-[8-[1-(2-hydroxyethyl)indol-6-yl]-5-oxo-7-thioxo-6,8-diazaspiro[3.4]octan-6-yl]-3-(trifluoromethyl)pyridine-2-carbonitrile] gave an Emax [1] of 101%, an IC50 [1] of 977 nM and an Emax [2] of 0%. The IC50 [2] was 1170 nM, the Emax [3] was 0.1% and the EC50 [3] was greater than 15100 nM. For the same compound, the Emax [4] was 0% and the EC50 [4] was greater than 15100 nM.

In the case of `CN1CCC(n2ccc3cc(N4C(=S)N(c5cnc(C#N)c(C(F)(F)F)c5)C(=O)C45CCC5)ccc32)CC1` [Cpd 251, 5-[8-[1-(1-methyl-4-piperidyl)indol-5-yl]-5-oxo-7-thioxo-6,8-diazaspiro[3.4]octan-6-yl]-3-(trifluoromethyl)pyridine-2-carbonitrile], the Emax [1] was 101%, the IC50 [1] was 174 nM and the Emax [2] was 0%. The IC50 [2] was 288 nM, the Emax [3] was 0.1% and the EC50 [3] was greater than 15100 nM. The Emax [4] was -0.1% and the EC50 [4] was greater than 15100 nM.
